The structures appear in SMILES notation.

The target of one assay is IRAK4 (Homo sapiens (Human), UniProt Q9NWZ3). The assay can be described thus: IRAK4 Inhibition Assay. Type of assay: biochemical. The settings on record: ATP 500 μM; IRAK4 0.6 nM. In short, it runs like this:
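Readout: electrophoretic (LabChip) separation of fluorescent peptide substrate from phosphorylated product after EDTA quench. Reactions ran 60 min at room temperature with 0.6 nM IRAK4, 1.5 μM peptide and 500 μM ATP; inhibition referenced to no-enzyme (100%) and vehicle (0%) controls.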

Assay [1] concerns IL-6 levels in human whole blood stimulated with a TLR2 agonist. Nature of the assay: IRAK4 Whole Blood Assay (lipoteichoic acid/TLR2-stimulated IL-6). It is filed as cell-based. The settings on record: lipoteichoic acid 10 μg/mL, IL-6 readout. The method, then:
Human whole blood containing the anti-coagulant ACD-A was plated in 384-well plate (25 μL/well) and incubated with compounds for 60 minutes at 37° C. in a 5% CO2 incubator. The blood was stimulated with a TLR2 agonist, 10 μg/mL final concentration of lipoteichoic acid (Invivogen, San Diego, Calif.) in 25 μL RPMI (Gibco) for 5 hours in a 5% CO2 incubator. At the end of the incubation, plates were centrifuged at 2300 rpm for 5 minutes. Supernatants were harvested and analyzed for IL-6 levels by Flow Cytometry beads assay (BD Biosciences, San Jose, Calif.).

Chain of IRAK4 (Q9NWZ3 whole entry): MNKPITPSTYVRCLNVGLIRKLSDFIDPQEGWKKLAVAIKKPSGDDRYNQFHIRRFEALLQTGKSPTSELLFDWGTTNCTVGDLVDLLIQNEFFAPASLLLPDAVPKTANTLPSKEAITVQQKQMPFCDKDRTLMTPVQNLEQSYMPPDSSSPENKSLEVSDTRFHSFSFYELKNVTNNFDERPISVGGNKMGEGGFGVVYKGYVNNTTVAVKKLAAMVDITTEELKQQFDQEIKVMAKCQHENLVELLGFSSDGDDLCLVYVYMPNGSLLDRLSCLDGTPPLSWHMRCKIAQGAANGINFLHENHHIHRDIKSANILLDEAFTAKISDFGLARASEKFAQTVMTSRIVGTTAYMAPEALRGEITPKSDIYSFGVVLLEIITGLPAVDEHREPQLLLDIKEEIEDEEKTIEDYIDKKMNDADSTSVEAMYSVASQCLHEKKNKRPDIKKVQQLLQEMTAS

In general, IC50 refers to the concentration at which inhibition is half-maximal. In general, EC50 refers to the midpoint of the concentration-response curve. For `CC(C)(O)[C@H](F)CNC(=O)c1cnc(-c2cnn3cc(Cl)cnc23)cc1NC1COCC1(F)F` (single isomer, unassigned) [Example 18], the IC50 on IRAK4 was determined as 8 nM. The compound also registered a 50% effective concentration (EC50) in assay [1] (Homo sapiens) of 1150 nM.

`CC(C)(O)[C@H](F)CNC(=O)c1cnc(-c2cnn3cc(C#N)cnc23)cc1NC1CCCOC1` (single isomer, unassigned) [Example 94]: the IC50 at IRAK4 came to 10 nM. The response in assay [1] was half-maximal at 370 nM (EC50).

`CC(C)(O)[C@H](F)CNC(=O)c1cnc(-c2cnn3cc(C#N)cnc23)cc1NC1CCCOC1` (single isomer, unassigned) [Example 95]: the IC50 at IRAK4 was found to be 6 nM. Also, the 50% effective concentration (EC50) in assay [1] came to 1160 nM.

`CC(C)Nc1cc(-c2cnc3cc(C#N)cnn23)ncc1C(=O)NCC(F)C1CC(C)OC(C)C1` (single isomer, unassigned) [Example 176, 6-(7-cyanoimidazo[1,2-b]pyridazin-3-yl)-N-(2-(2,6-dimethyltetrahydro-2H-pyran-4-yl)-2-fluoroethyl)-4-(isopropylamino)nicotinamide]: the IC50 on IRAK4 was 3 nM. In assay [1] (Homo sapiens), this compound showed an EC50 of 540 nM.

Turning to `CCC(C)Nc1cc(-c2cnn3cc(Cl)cnc23)ncc1C(=O)NC[C@@H](F)C(C)(C)O` (stereo in doubt) [Example 69, 4-(((R)-sec-butyl)amino)-6-(6-chloropyrazolo[1,5-a]pyrimidin-3-yl)-N—((R)-2-fluoro-3-hydroxy-3-methylbutyl)nicotinamide], the IC50 on IRAK4 came out at 2 nM. The same compound yielded an EC50 in assay [1] (Homo sapiens) of 3170 nM.

As to `CC(C)(CO)Nc1cc(-c2cnn3cc(Cl)cnc23)ncc1C(=O)NC[C@@H](F)C(C)(C)O` [Example 7, (R)-6-(6-chloropyrazolo[1,5-a]pyrimidin-3-yl)-N-(2-fluoro-3-hydroxy-3-methylbutyl)-4-((1-hydroxy-2-methylpropan-2-yl)amino)nicotinamide], the IC50 at IRAK4 came to 2 nM. For the same compound, in assay [1] (Homo sapiens), the EC50 amounted to 570 nM.

In the case of `CC(C)Nc1cc(-c2cnn3cc(Cl)cnc23)ncc1C(=O)NCCC(C)(C)F` [Example 20, 6-(6-chloropyrazolo[1,5-a]pyrimidin-3-yl)-N-(3-fluoro-3-methylbutyl)-4-(isopropylamino)nicotinamide], the IC50 on IRAK4 came to 7 nM. It took 2530 nM to reach a half-maximal effect in assay [1] (Homo sapiens) (EC50).

In the case of `CC(C)Nc1cc(-c2cnc3cccnn23)ncc1C(=O)NC[C@@H](F)C(C)(C)O` [Example 21, (R)—N-(2-fluoro-3-hydroxy-3-methylbutyl)-6-(imidazo[1,2-b]pyridazin-3-yl)-4-(isopropylamino)nicotinamide], the IC50 on IRAK4 came to 7 nM. For the same compound, the EC50 in assay [1] amounted to 2530 nM.

For `CNC(=O)[C@H]1CC[C@H](NC(=O)c2cnc(-c3cnn4cc(Cl)cnc34)cc2NC2CC2)CC1` [Example 25, 6-(6-chloropyrazolo[1,5-a]pyrimidin-3-yl)-4-(cyclopropylamino)-N-((1r,4r)-4-(methylcarbamoyl)cyclohexyl)nicotinamide], the IC50 on IRAK4 was determined as 5 nM. Besides, the response in assay [1] (Homo sapiens) was half-maximal at 460 nM (EC50).

With `CNC(=O)[C@H]1CC[C@H](NC(=O)c2cnc(-c3cnn4cc(Cl)cnc34)cc2NC(C)C)CC1` [Example 27, 6-(6-chloropyrazolo[1,5-a]pyrimidin-3-yl)-4-(isopropylamino)-N-((1r,4r)-4-(methylcarbamoyl)cyclohexyl) nicotinamide], the IC50 at IRAK4 turned out to be 7 nM. In assay [1] (Homo sapiens), a half-maximal effect (EC50) was put at 1050 nM.

As for `CC(C)Nc1cc(-c2cnn3cc(Cl)cnc23)ncc1C(=O)N[C@H]1CC[C@H](C(=O)NC2CC2)CC1` [Example 28, 6-(6-chloropyrazolo[1,5-a]pyrimidin-3-yl)-N-((1r,4r)-4-(cyclopropylcarbamoyl)cyclohexyl)-4-(isopropylamino)nicotinamide], on IRAK4, the IC50 was 5 nM. The compound further yielded an EC50 in assay [1] (Homo sapiens) of 1920 nM.

Consider `CC(C)(O)[C@H](F)CNC(=O)c1cnc(-c2cnn3cc(Cl)cnc23)cc1Nc1cccc(C#N)c1F` [Example 35, (R)-6-(6-chloropyrazolo[1,5-a]pyrimidin-3-yl)-4-((3-cyano-2-fluorophenyl)amino)-N-(2-fluoro-3-hydroxy-3-methylbutyl)nicotinamide], for which the IC50 at IRAK4 came out at 2 nM. Moreover, the EC50 in assay [1] (Homo sapiens) came to 2440 nM.

For `O=C(N[C@H]1CC[C@H](C(=O)NC2CC2)CC1)c1cnc(-c2cnn3cc(Cl)cnc23)cc1NC1COC1` [Example 41, 6-(6-chloropyrazolo[1,5-a]pyrimidin-3-yl)-N-((1r,4r)-4-(cyclopropylcarbamoyl)cyclohexyl)-4-(oxetan-3-ylamino)nicotinamide], the IC50 at IRAK4 was determined as 7 nM. Also, in assay [1] (Homo sapiens), the EC50 is 350 nM.

As to `CC(C)(O)[C@H](F)CNC(=O)c1cnc(-c2cnn3cc(Cl)cnc23)cc1NCC1(O)CCC1` [Example 51, (R)-6-(6-chloropyrazolo[1,5-a]pyrimidin-3-yl)-N-(2-fluoro-3-hydroxy-3-methylbutyl)-4-(((1-hydroxycyclobutyl)methyl)amino)nicotinamide], the IC50 on IRAK4 turned out to be 10 nM. A half-maximal response in assay [1] (Homo sapiens) (EC50) required 1250 nM.

On to `[2H]C([2H])([2H])OC(C)(C)[C@H](F)CNC(=O)c1cnc(-c2cnn3cc(Cl)cnc23)cc1NC(C)C` [Example 57, (R)-6-(6-chloropyrazolo[1,5-a]pyrimidin-3-yl)-N-(2-fluoro-3-trideuteromethoxy-3-methylbutyl)-4-(isopropylamino)nicotinamide], for which the IC50 on IRAK4 turned out to be 3 nM. In assay [1] (Homo sapiens), this compound displayed an EC50 of 2340 nM.

With `CC(C)(O)[C@H](F)CNC(=O)c1cnc(-c2cnn3cc(Cl)cnc23)cc1NC12CC(C1)C2` [Example 75, (R)-4-(bicyclo[1.1.1]pentan-1-ylamino)-6-(6-chloropyrazolo[1,5-a]pyrimidin-3-yl)-N-(2-fluoro-3-hydroxy-3-methylbutyl)nicotinamide], the IC50 on IRAK4 was 2 nM. In addition, the EC50 in assay [1] (Homo sapiens) is 1460 nM.

For the compound `CC1(Nc2cc(-c3cnn4cc(Cl)cnc34)ncc2C(=O)NC[C@@H](F)C(C)(C)O)CC1` [Example 80, (R)-6-(6-chloropyrazolo[1,5-a]pyrimidin-3-yl)-N-(2-fluoro-3-hydroxy-3-methylbutyl)-4-((1-methylcyclopropyl)amino)nicotinamide], the IC50 on IRAK4 is 6 nM. In assay [1] (Homo sapiens), the midpoint of the response, the EC50, lay at 840 nM.

As to `C[C@H](CO)Nc1cc(-c2cnn3cc(C#N)cnc23)ncc1C(=O)NC[C@@H](F)C(C)(C)O` [Example 98, 6-(6-cyanopyrazolo[1,5-a]pyrimidin-3-yl)-N—((R)-2-fluoro-3-hydroxy-3-methylbutyl)-4-(((R)-1-hydroxypropan-2-yl)amino)nicotinamide], the IC50 at IRAK4 turned out to be 6 nM. The compound also came in with an EC50 in assay [1] (Homo sapiens) of 860 nM.

For the compound `CC(C)(O)[C@H](F)CNC(=O)c1cnc(-c2cnn3cc(C#N)cnc23)cc1NC1COC1` [Example 99, (R)-6-(6-cyanopyrazolo[1,5-a]pyrimidin-3-yl)-N-(2-fluoro-3-hydroxy-3-methylbutyl)-4-(oxetan-3-ylamino) nicotinamide], the half-maximal inhibitory concentration (IC50) at IRAK4 stood at 4 nM. The same compound registered an EC50 in assay [1] (Homo sapiens) of 600 nM.

For `CC(C)(O)[C@H](F)CNC(=O)c1cnc(-c2cnn3cc(C#N)cnc23)cc1N[C@@H](CO)Cc1ccccc1` [Example 101, 6-(6-cyanopyrazolo[1,5-a]pyrimidin-3-yl)-N—((R)-2-fluoro-3-hydroxy-3-methylbutyl)-4-(((R)-1-hydroxy-3-phenylpropan-2-yl)amino)nicotinamide], the IC50 at IRAK4 stood at 7 nM. A half-maximal response in assay [1] (Homo sapiens) (EC50) required 1640 nM.

Consider `CC(C)(O)[C@H](F)CNC(=O)c1cnc(-c2cnn3cc(C#N)cnc23)cc1N[C@@H]1CCN(c2ncc(F)cn2)C1` [Example 109, 6-(6-cyanopyrazolo[1,5-a]pyrimidin-3-yl)-N—((R)-2-fluoro-3-hydroxy-3-methylbutyl)-4-(((R)-1-(5-fluoropyrimidin-2-yl)pyrrolidin-3-yl)amino)nicotinamide], for which the IC50 on IRAK4 stood at 5 nM. Also, a half-maximal effect in assay [1] (Homo sapiens) (EC50) was put at 440 nM.

Regarding `CC(C)(O)[C@H](F)CNC(=O)c1cnc(-c2cnn3cc(C#N)cnc23)cc1Nc1cccc(C(N)=O)c1` [Example 111, (R)-4-((3-carbamoylphenyl)amino)-6-(6-cyanopyrazolo[1,5-a]pyrimidin-3-yl)-N-(2-fluoro-3-hydroxy-3-methylbutyl)nicotinamide], at IRAK4, the IC50 came out at 3 nM. Moreover, in assay [1] (Homo sapiens), a half-maximal response (EC50) required 900 nM.

Turning to `CC(C)(CO)Nc1cc(-c2cnn3cc(C#N)cnc23)ncc1C(=O)NC[C@@H](F)C(C)(C)O` [Example 114, (R)-6-(6-cyanopyrazolo[1,5-a]pyrimidin-3-yl)-N-(2-fluoro-3-hydroxy-3-methylbutyl)-4-((1-hydroxy-2-methylpropan-2-yl)amino)nicotinamide], the IC50 on IRAK4 came to 3 nM. In assay [1] (Homo sapiens), this compound yielded an EC50 of 480 nM.

On to `CC(C)(O)[C@H](F)CNC(=O)c1cnc(-c2cnn3cc(C#N)cnc23)cc1N[C@@H]1CCN(c2ncccn2)C1` [Example 118, 6-(6-cyanopyrazolo[1,5-a]pyrimidin-3-yl)-N—((R)-2-fluoro-3-hydroxy-3-methylbutyl)-4-(((R)-1-(pyrimidin-2-yl)pyrrolidin-3-yl)amino)nicotinamide], for which, at IRAK4, the IC50 was found to be 9 nM. Besides, the EC50 in assay [1] (Homo sapiens) turned out to be 710 nM.

`CC(C)(O)[C@H]1CC[C@H](NC(=O)c2cnc(-c3cnn4cc(C#N)cnc34)cc2NC2COC2)CC1` [Example 120, 6-(6-cyanopyrazolo[1,5-a]pyrimidin-3-yl)-N-((1r,4r)-4-(2-hydroxypropan-2-yl)cyclohexyl)-4-(oxetan-3-ylamino)nicotinamide]: at IRAK4, the IC50 was 9 nM. Besides, it took 800 nM to reach a half-maximal effect in assay [1] (Homo sapiens) (EC50).

The values are drawn from US10618903B2, “Heteroaryl substituted aminopyridine compounds” (BRISTOL-MYERS SQUIBB COMPANY, priority 2015, dated 2020).
